Data as given in US10570172B1 (priority 2008, dated 2020).

Target: PrP (Mesocricetus auratus, UniProt P04273)
Type: binding, hamster

Sequence of PrP (P04273 23-231 limits assumed): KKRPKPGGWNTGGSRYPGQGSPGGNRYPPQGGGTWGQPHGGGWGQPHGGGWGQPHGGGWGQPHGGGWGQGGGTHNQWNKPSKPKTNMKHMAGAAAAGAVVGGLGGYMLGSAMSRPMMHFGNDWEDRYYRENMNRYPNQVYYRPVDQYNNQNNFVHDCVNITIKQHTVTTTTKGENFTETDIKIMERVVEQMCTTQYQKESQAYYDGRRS

## Nc1c(/N=N/c2ccc(-c3ccc(/N=N/c4cc(S(=O)(=O)O)c5ccccc5c4N)cc3)cc2)cc(S(=O)(=O)O)c2ccccc12 [Congo red]
Congo red pre-incubated with PrP before RADA exposure
  inhibition of binding of PrP to RADA: dose-dependent inhibition
Congo red pre-incubation with PrP, Mann-Whitney
  Congo red concentration with significant inhibition of PrP binding: 1 µM
RADA pre-incubated with Congo red before or after plate binding
  inhibition of binding of PrP: ineffective
